Like-named read-outs stand apart in the source and are kept apart here.
What was measured:
[1] = tested on: MRC-5 (human lung fibroblast); test: Alamar blue (AB) cytotoxicity assay, MRC-5 noncancerous cells; format: cell-based; details: MRC5 non-cancer cells, 72 h
[2] = tested on: PBMC (human peripheral blood mononuclear cell); test: Alamar blue (AB) cytotoxicity assay, PBMC noncancerous cells; format: cell-based; details: PBMC non-cancer cells, 72 h
[3] = tested on: BAD gene knockout immortalized mouse embryonic fibroblasts (BAD KO SV40 MEF); test: Alamar blue (AB) cytotoxicity assay, BAD KO SV40 MEF; format: cell-based; details: Mus musculus, Fibroblast, 72 h
[4] = tested on: wild-type immortalized mouse embryonic fibroblasts (WT SV40 MEF); test: Alamar blue (AB) cytotoxicity assay, WT SV40 MEF; format: cell-based; details: Mus musculus, Fibroblast, 72 h
[5] = tested on: HL-60 cells; test: Cell morphology (May-Grunwald-Giemsa staining) and light scattering by flow cytometry; format: cell-based, human; details: positive controls, DOX 2 µM, OXA 2.5 µM
[6] = tested on: HL-60 cells; format: cell-based, human; details: for DNA fragmentation (in words): positive controls, DOX 2 µM, 24 and 48 h
Protocol: The internucleosomal DNA fragmentation and cell cycle distribution were assessed in HL-60 cells after 24 and 48 h of incubation with the [Ru(PPh3)2(Thy)(bipy)]PF6 complex in a DNA content-based assay using the dye propidium iodide (PI) and flow cytometry (Table 3). All DNA with a subdiploid size (sub-G0/G1) were considered to be fragmented. At concentrations of 1, 2, and 4 μM, the complex led to, respectively, 19.4%, 30.1%, and 36.2% DNA fragmentation after 24 h of incubation and to 12.5%, 26.7%, and 58.2% DNA fragmentation after 48 h of incubation.
(§1) Light scattering features were determined by flow cytometry. The internucleosomal DNA fragmentation and cell cycle distribution were determined according to Nicoletti et al.. For apoptosis measurements, a FITC Annexin V Apoptosis Detection Kit I (BD Biosciences, San Jose, CA, USA) was used, and the analysis was performed, according to the manufacturer’s instructions. A protection assay using the pan-caspase inhibitor Z-VAD(OMe)-FMK (Cayman Chemical, Ann Arbor, MI, USA) was also evaluated. The mitochondrial transmembrane potential was determined by the retention of the dye rhodamine 123 [28]. The levels of ROS were measured, as previously described, using 2′,7′-dichlorofluorescin diacetate (DCF-DA, Sigma-Aldrich Co.). At least 1 × 10^4 events were recorded per sample using a BD LSRFortessa cytometer along with BD FACSDiva Software (BD Biosciences) and Flowjo Software 10 (Flowjo LCC, Ashland, OR, USA). The cellular debris was omitted from the analysis.

[7] = tested on: HL-60 cells; test: Annexin V-FITC/PI apoptosis assay by flow cytometry; format: cell-based, human; details: annexin V-FITC/PI, 24 and 48 h
Protocol: Additionally, annexin V, which is a Ca^2+-dependent protein with high affinity for phosphatidylserine, was conjugated to a fluorochrome to detect phosphatidylserine exposure using flow cytometry. Since phosphatidylserine exposure precedes the loss of membrane integrity, annexin V staining was used along with the dye PI to identify early and late apoptotic cells, as well as necrotic cells. Therefore, annexin V-FITC/PI double staining was applied to HL-60 cells that were treated with the [Ru(PPh3)2(Thy)(bipy)]PF6 complex after 24 and 48 h of incubation, and the numbers of viable, early apoptotic, late apoptotic, and necrotic cells were quantified by flow cytometry (Figure 5).
Figure 5 Evaluation of the apoptosis induced by the [Ru(PPh3)2(Thy)(bipy)]PF6 complex (CRT) in HL-60 cells determined by flow cytometry using annexin V-FITC/PI staining after 24 and 48 h of incubation. (A) Representative flow cytometry dot plots. (B) Apoptotic cell quantification (annexin V-FITC positive cells). […] Data are presented as the mean ± S.E.M. of at the least three independent experiments. * p < 0.05 as compared with the negative control by ANOVA, followed by the Student Newman-Keuls test. […] Its quadrant percentages are just as hard to read: 24 h about Q1 0.640%, Q2 5.23%, Q4 85.6%, Q3 8.47%; 48 h about Q1 0.430%, Q2 3.07%, Q4 91.0%, Q3 5.52%.
as §1

[8] = tested on: HL-60 cells; details: 2 μM, TBE

COc1cccc2c1C(=O)c1c(O)c3c(c(O)c1C2=O)C[C@@](O)(C(=O)CO)C[C@@H]3O[C@H]1C[C@H](N)[C@H](O)[C@H](C)O1 [DOX, Doxorubicin, reference compound]
IC50 ([1]; Homo sapiens): 1.5 µM | IC50 ([2]; Homo sapiens): 5.1 µM | IC50 [3]: 1.3 µM | IC50 [4]: 0.8 µM | Type of cell death [5]: caused cell death by apoptosis | DNA content G0/G1 ([6]; 2 µM, 24 h): 19.9 ± 2.5 % | DNA content G2/M ([6]; 2 µM, 24 h): 8.9 ± 1.5 % | DNA content S ([6]; 2 µM, 24 h): 6.6 ± 1.6 % | DNA content Sub-G0/G1 (DNA fragmentation) ([6]; 2 µM, 24 h): 58.6 ± 2.5 % | DNA content G0/G1 ([6]; 2 µM, 48 h): 21.9 ± 3.0 % | DNA content G2/M ([6]; 2 µM, 48 h): 3.8 ± 0.9 % | DNA content S ([6]; 2 µM, 48 h): 6.5 ± 0.6 % | DNA content Sub-G0/G1 (DNA fragmentation) ([6]; 2 µM, 48 h): 65.4 ± 2.8 % | DNA fragmentation (in words) ([6]; OXA 2.5 µM): induced DNA fragmentation | Percentage of apoptotic cells (early apoptotic cells + late apoptotic cells) [7]: caused an increase | Reduction of the number of viable cells ([8]; 24 h): 58.0% | Reduction of the number of viable cells ([8]; 48 h): 88.1%

O=C1[O][Pt]2([NH][C@@H]3CCCC[C@H]3[NH]2)[O]C1=O [OXA, Oxaliplatin, reference compound]
IC50 [1]: 1.3 µM | IC50 [2]: 9.4 µM | Type of cell death [5]: caused cell death by apoptosis | DNA content G0/G1 ([6]; 2.5 µM, 24 h): 31.4 ± 3.0 % | DNA content G2/M ([6]; 2.5 µM, 24 h): 26.0 ± 3.6 % | DNA content S ([6]; 2.5 µM, 24 h): 11.6 ± 2.3% | DNA content Sub-G0/G1 (DNA fragmentation) ([6]; 2.5 µM, 24 h): 21.9 ± 3.3 % | DNA content G0/G1 ([6]; 2.5 µM, 48 h): 42.9 ± 2.8 % | DNA content G2/M ([6]; 2.5 µM, 48 h): 19.1 ± 3.3% | DNA content S ([6]; 2.5 µM, 48 h): 14.2 ± 1.2% | DNA content Sub-G0/G1 (DNA fragmentation) ([6]; 2.5 µM, 48 h): 18.4 ± 4.4 % | Cell cycle arrest ([6]; OXA 2.5 µM): cell cycle arrest at the G2/M phase | DNA fragmentation (in words) ([6]; OXA 2.5 µM): induced DNA fragmentation | Percentage of apoptotic cells (early apoptotic cells + late apoptotic cells) [7]: caused an increase
